“Also recorded” adds a separate entry of the source.
Assays:
[1] = target: T1, GHR (Oryctolagus cuniculus, UniProt P19941); assay: GHR and pY-GHR immunoblot in GHR-transfected Hek293 cells stimulated with GH; assay type: cell-based, rabbit; conditions: for GHR pY HEK cells: GH 10-15 min before lysis, drugs overnight/20 h; for GHR HEK cells (GHR at PM and in ER): 10 µM drugs overnight
T1 construct: expressed in transfected cells; host or cells: Hek293 / Hek293T cells
T1 sequence (P19941 19-638): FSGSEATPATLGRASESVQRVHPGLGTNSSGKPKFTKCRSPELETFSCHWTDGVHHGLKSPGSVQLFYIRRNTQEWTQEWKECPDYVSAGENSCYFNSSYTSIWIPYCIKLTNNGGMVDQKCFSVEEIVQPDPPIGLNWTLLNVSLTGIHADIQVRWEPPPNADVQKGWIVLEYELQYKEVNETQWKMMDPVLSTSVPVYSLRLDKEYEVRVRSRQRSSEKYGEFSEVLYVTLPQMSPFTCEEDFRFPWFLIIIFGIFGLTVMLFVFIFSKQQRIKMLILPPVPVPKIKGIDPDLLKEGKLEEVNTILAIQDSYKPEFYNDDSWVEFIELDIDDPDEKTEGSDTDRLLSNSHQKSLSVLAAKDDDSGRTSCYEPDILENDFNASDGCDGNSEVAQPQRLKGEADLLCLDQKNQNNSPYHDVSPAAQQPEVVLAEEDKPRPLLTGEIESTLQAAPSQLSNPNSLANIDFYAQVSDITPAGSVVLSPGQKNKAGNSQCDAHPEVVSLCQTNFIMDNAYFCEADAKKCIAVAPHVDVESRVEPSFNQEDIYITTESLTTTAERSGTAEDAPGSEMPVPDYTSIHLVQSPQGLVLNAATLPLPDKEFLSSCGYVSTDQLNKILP
Description: For GHR-Jak2 co-immunoprecipitations, the cells were lysed in 20 mM Tris pH 8.0, 150 mM NaCl, 0.5% NP40, 1 mM PMSF, […]. Cell lysates were centrifuged to pellet the nuclei and the supernatants were used for GHR isolation in 1% Triton X-100, 0.5% SDS,0.25% sodium deoxycholate, 0.5% BSA, and inhibitors via immune precipitation with anti-GHR and protein A beads. Immunoprecipitates were subjected to reducing SDS-PAGE and transferred to Immobilon-FL polyvinylidenedifluoride membrane (Millipore). Blots were immunostained with the indicated primary antibodies followed by Alexa Fluor 680, Alexa-800 IRDye conjugated anti-mouse or anti-rabbit antibodies. Detection was performed with an Odyssey system (LI-COR Biosciences).
In the primary screen we used soluble fos-zipped GHR cytosolic tails that act in signaling complexes if co-expressed with Jak2. Initially, 6 scenarios were anticipated that can lower these signals. In the discovery itinerary we used the flow cytometer assay twice to find drugs that act on the GH-induced Jak2/STAT5 pathway and not on the identical GM/CSF-driven pathway ( Figure 3 , Figure S8 ). As the GM/CSF-induced Jak2/STAT5 pathway was not affected by the 2 hit compounds (BM004 and BM012), that served as prototypes for the final analogue selection, we excluded the possibility that they act on the Jak2 signaling pathway directly (scenario 1). To test scenario 2 (inhibition of fos-GHRct expression), we treated GHR-expressing Hek293T cells with a selection of drugs from the cell proliferation studies and analyzed the GHR species. […] The ratio between the amounts of GHR in the ER and at the PM reflects a steady state of synthesis (ER) and transport to the PM followed by endocytosis and degradation in the lysosomes. […] Because both species diminished, the drugs either inhibit the synthesis of GHR molecules or induce rapid GHR degradation in the ER. To decide between these possibilities, we performed in vitro translation experiments. […] To exclude scenario 3 (inhibition of the GHR : Jak2 interaction) we replaced the proline residues in box-1 (the binding site for Jak2) with alanine residues. […] These findings render scenarios 4-6 (increased degradation of fos-pGHRct, increased degradation of Jak2, and dephosphorylation of fos-pGHRct) unlikely.
Figure 7 Effect of drugs on protein synthesis. (A): Effect of compounds on GHR. […] The amounts of GHR both at the plasma membrane (PM) and in the ER (ER) were decreased in the drug-treated cells. […] The cells were treated for GH for 10 min before lysis to be able to monitor the pY signals, after GHR isolation by immunoprecipitation (middle panels). The effect of the drugs on the pY signals reflected those of the GHR levels (only PM species were visible). In the presence of Ruxolitinib, the protein levels were unchanged, while the pY label (middle panel) was absent. […] This experiment represents the results of 6 independent repeats. (B): BM001 concentration effects on the synthesis of fos-GHRct in a HeLa cell cell-free system. […] In the right panel the 4 proline residues in box-1 were replaced by alanine residues. Empty vector (pcDNA) was used as control. The blots were detected with anti-GHR(B). The in vitro translation was performed 5 times that all show a clear inhibitory effect of BM001 on the GHR signal. (C): Effect of selected drugs on GHR levels in human lymphoblasts. IM‐9 human B lymphoblasts express endogenous GHR. […]

[2] = test system: GM-CSF-Jak2-Stat5 signaling in blood monocytes; assay: Flow cytometric (FACS) pSTAT5 test, GM-CSF-induced, blood monocytes; conditions: Fig. S8B; Conc of drugs: 1 mM; incubation time 30 min
Description: (§1) First round: The PerFix EXPOSE (Beckman Coulter), was used to fix and permeabilize cells according to the optimized procedure described in Malergue et al., 2015 ([36]). Samples were analyzed in FC500 MPL. Data were analyzed with Kaluza software (Beckman Coulter). Second round: the PerFix EXPOSE was used according to the IFU and samples were analyzed in a Navios Cytometer. The first screening used pure IM-9 cells, whereas in the second round they were spiked in 100 µL whole blood (EDTA tubes). 15 min after the inhibitory compounds, the activators were added for 20-30 min.
In short: A mixture of blood and
(§2) IM9 human lymphoblast was incubated with the drugs (50 µM) for 15 MIN; GH and GM-CSF
(§3) were added 7 min before the cells were fixed with formaldehyde. Blood cells are sensitive to
(§4) GM-CSF, and not to GH; IM9 cells are sensitive to GH. A mixture of three antibodies in three
(§5) colors; CD14-FITC, CD34-PE and p-Stat5-Alexa 647 was used to analyze the p-Stat5 levels
of monocytes and IM9 cells.
(§6) Fig. S8A. FACS plots of compounds that inhibit GH-induced GHR-Jak2-Stat5 signaling in IM9 lymphoblasts.
(§7) The end point of the signaling cascade is measured by assessing the phosphorylation status of STAT5.
(§8) Stat5. Conc of drugs: 1 mM; incubation time 30 min
(§9) Fig. S8B. FACS plots of compounds that inhibit GM-CSF-Jak2-Stat5 signaling in blood monocytes. The end
(§10) point of the signaling cascade is measured by assessing the phosphorylation status of STAT5.

[3] = test system: GH-induced GHR-Jak2-Stat5 signaling in IM9 lymphoblasts; assay: Flow cytometric (FACS) pSTAT5 test, GH-induced, IM9 cells in whole blood; conditions: for GH-induced Stat5 phosphorylation (in words): Fig. S8A, Conc of drugs: 1 mM, incubation time 30 min; for inhibition in the FACS assay: drugs 50 µM for 15 MIN
Description: as §1
In short: A mixture of blood and
as §2, §3, §4, §5
of monocytes and IM9 cells.
as §6, §7, §8, §9, §10

[4] = test system: IGF1; assay: Serum IGF1 levels in xenografted mice; assay type: in vivo
Description: BM001, BM002, and BM003 were used in mice xenografted with MM231 breast cancer cells that are GH-responsive both for growth and drug resistance ([42]–[45]). The cells were orthotopically grafted into the inguinal mammary gland, and drug treatments started when tumors reached a volume of >50 mm^3. We used a treatment regimen of 3 injections per week (1 and 5 mg/kg) during 3 weeks (9 mice/group) ( Figure 6 ). Animals were killed when tumor volume exceeded 150 mm^3 or mice presented lung metastasis upon bioluminescence imaging measurements. […] Drug withdrawal effects were not studied until now. […] We observed no adverse side effects neither on appetite and behavior ([46]). […] We next assessed if the identified drugs indeed target the GH/IGF1 pathway and consequently, if they result in a decrease in liver weight and IGF1 levels, as observed in GHR knockout mice and Laron patients ([47]).

GHR pY HEK cells [1]	GHR HEK cells (GHR at PM and in ER) [1]	Compound	GM-CSF-induced Stat5 phosphorylation (in words) [2]	time to decrease of STAT5 phosphorylation [3]	GH-induced Stat5 phosphorylation (in words) [3]	inhibition in the FACS assay [3]	reduction of serum IGF1 levels ([4]; 3 injections per week, 3 weeks)	plasma IGF1 levels (in words) ([4]; Figure 6D)	reduction of IGF1 (fold) ([4]; measured at the end of the experiment)
reduced		CCOc1cccc2nc(N)nc(N)c12 [BM012]	no effect; also recorded: inactive; also recorded: not affected	≤ 30 min	decreased; also recorded: inhibit	> 30%			
absent	unchanged	N#CC[C@H](C1CCCC1)n1cc(-c2ncnc3[nH]ccc23)cn1 [Ruxolitinib, reference compound]							
	strongest effect	Cc1nc(N)nc(N)c1/C=C/C1(c2ccc(C(F)(F)F)cc2)CC1 [BM001]					73%	dose-dependent reduction	four-fold
reduced		Cc1nc(N)nc(N)c1C#CC1(c2ccc(Cl)cc2)CC1 [BM004]	no effect; also recorded: inactive; also recorded: not affected	≤ 30 min	decreased; also recorded: inhibit	> 30%			

Source: article PMC9365994, “Small molecules to regulate the GH/IGF1 axis by inhibiting the growth hormone receptor synthesis” (Frontiers in Endocrinology, 2022)
